Columns and labels:
Test in all cases: radiometric filter-binding kinase assay
Conditions in all cases: compound 100.0 µM
[1] = target: PIM3 (human) (UniProt Q86V86)
[2] = target: MAPKAPK3 (human) (UniProt Q16644)
[3] = target: MAPK10 (human) (UniProt P53779)
[4] = target: MAPK12 (human) (UniProt P53778)
[5] = target: FLT1 (human) (UniProt P17948)
[6] = target: MAP3K11 (human) (UniProt Q16584)
[7] = target: MAPK14 (human) (UniProt Q16539)
[8] = target: MAP3K9 (human) (UniProt P80192)
[9] = target: GSK3B (human) (UniProt P49841)
[10] = test system: AKT2 (human), P31751 [S474D]
[11] = target: DYRK1A (human) (UniProt Q13627)
[12] = target: MAPK11 (human) (UniProt Q15759)
[13] = target: CaMK1 (human) (UniProt Q14012)
[14] = target: INSRR (human) (UniProt P14616)
Chain of INSRR (human) (P14616 whole entry, looked up): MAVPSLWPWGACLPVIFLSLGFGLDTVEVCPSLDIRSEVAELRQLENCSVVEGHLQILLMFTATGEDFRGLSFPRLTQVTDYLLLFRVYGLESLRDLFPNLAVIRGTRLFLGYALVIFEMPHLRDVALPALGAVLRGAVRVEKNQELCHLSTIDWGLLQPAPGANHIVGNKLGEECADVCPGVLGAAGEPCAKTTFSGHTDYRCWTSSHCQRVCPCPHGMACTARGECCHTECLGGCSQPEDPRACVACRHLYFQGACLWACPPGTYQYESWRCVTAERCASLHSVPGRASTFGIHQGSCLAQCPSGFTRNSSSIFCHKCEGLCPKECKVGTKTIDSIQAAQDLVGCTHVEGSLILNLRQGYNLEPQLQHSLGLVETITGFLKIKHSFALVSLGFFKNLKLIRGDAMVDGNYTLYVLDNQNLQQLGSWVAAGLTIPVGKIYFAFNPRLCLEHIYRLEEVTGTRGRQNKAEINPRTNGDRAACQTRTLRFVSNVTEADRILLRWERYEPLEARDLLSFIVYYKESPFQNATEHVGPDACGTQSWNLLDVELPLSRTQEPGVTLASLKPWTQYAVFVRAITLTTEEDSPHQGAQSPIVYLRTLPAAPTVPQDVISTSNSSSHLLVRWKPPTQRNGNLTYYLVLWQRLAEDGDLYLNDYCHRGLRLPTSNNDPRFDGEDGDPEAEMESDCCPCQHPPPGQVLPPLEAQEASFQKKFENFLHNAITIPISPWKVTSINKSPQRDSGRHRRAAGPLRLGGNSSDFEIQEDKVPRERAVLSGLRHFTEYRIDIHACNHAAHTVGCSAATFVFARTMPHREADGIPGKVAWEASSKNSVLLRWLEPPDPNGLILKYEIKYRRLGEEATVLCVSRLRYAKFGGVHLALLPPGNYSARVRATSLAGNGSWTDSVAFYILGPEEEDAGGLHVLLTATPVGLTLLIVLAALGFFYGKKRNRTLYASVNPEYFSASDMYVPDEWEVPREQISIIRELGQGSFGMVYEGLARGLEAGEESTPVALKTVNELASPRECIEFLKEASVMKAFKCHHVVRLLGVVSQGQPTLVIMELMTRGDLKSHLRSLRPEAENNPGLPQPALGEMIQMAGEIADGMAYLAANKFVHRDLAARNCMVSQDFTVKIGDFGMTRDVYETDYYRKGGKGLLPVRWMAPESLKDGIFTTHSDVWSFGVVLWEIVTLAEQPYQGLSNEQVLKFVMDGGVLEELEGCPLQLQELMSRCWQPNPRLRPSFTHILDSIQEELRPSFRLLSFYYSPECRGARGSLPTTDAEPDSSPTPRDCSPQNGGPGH

[15] = target: RPS6KA3 KD1 KD2 (human) (UniProt P51812)
[16] = target: MARK2 (human) (UniProt Q7KZI7)
[17] = target: INSR (human) (UniProt P06213)
[18] = target: CHEK2 (human) (UniProt O96017)
[19] = target: MAPKAPK2 (human) (UniProt P49137)
[20] = target: DYRK2 (human) (UniProt Q92630)
[21] = target: FGFR1 (human) (UniProt P11362)
[22] = target: CLK2 (human) (UniProt P49760)
[23] = target: MAPK9 (human) (UniProt P45984)
[24] = target: AURKA (human) (UniProt O14965)
[25] = target: DYRK3 (human) (UniProt O43781)
[26] = target: MAPK1 (human) (UniProt P28482)
[27] = target: PIM1 (human) (UniProt P11309)
[28] = target: MINK1 (human) (UniProt Q8N4C8)
[29] = target: RIPK2 (human) (UniProt O43353)
[30] = target: AURKB (human) (UniProt Q96GD4)
[31] = target: IKBKE (human) (UniProt Q14164)
[32] = target: BTK (human) (UniProt Q06187)
[33] = target: PLK1 (human) (UniProt P53350)
[34] = target: NUAK1 (human) (UniProt O60285)
[35] = target: HIPK2 (human) (UniProt Q9H2X6)
Chain of HIPK2 (human) (Q9H2X6 whole entry, looked up): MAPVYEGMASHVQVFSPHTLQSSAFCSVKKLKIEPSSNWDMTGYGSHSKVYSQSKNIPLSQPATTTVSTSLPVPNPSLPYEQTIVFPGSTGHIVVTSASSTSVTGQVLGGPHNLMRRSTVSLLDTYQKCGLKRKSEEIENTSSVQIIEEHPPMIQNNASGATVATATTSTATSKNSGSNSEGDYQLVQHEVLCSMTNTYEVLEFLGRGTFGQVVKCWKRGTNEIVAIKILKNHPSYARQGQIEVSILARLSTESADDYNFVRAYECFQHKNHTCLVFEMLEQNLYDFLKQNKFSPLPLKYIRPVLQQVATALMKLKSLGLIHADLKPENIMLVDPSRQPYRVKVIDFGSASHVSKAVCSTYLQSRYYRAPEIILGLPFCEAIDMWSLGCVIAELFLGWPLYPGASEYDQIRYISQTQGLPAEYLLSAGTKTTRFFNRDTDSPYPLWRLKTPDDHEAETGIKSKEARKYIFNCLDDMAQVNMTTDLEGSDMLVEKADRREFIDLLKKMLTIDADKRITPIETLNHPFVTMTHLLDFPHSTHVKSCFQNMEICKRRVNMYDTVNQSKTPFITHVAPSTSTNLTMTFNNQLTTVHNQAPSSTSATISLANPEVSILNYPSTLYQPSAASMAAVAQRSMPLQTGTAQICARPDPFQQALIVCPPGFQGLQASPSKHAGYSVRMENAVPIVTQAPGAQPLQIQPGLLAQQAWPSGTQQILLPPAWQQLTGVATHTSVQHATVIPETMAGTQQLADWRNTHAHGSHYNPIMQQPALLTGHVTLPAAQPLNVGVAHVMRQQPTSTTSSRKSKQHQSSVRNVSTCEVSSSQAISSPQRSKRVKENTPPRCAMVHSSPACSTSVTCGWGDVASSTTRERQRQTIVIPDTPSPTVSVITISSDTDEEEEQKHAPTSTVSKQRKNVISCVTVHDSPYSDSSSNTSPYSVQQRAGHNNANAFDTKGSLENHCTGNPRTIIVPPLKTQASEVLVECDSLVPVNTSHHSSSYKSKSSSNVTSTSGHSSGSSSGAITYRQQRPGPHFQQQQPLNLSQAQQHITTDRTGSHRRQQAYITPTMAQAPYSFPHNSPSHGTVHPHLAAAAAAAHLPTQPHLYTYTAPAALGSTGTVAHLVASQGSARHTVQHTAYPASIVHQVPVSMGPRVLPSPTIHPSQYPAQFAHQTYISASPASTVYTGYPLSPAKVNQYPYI

[36] = target: TTK (human) (UniProt P33981)
[37] = target: MAPK3 (human) (UniProt P27361)
Chain of MAPK3 (human) (P27361 whole entry, looked up): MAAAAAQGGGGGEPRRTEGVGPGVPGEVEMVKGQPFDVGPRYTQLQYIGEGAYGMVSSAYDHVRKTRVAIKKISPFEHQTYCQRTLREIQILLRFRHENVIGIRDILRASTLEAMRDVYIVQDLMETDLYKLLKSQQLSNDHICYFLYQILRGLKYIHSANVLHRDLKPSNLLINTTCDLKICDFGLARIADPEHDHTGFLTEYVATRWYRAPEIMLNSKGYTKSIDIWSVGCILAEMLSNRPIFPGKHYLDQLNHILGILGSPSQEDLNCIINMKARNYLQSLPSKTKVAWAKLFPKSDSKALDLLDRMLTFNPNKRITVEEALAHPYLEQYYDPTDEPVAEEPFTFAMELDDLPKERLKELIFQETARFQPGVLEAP

[38] = target: MAPK8 (human) (UniProt P45983)
[39] = target: NEK2 (human) (UniProt P51955)
[40] = target: ERBB4 (human) (UniProt Q15303)
[41] = target: MAPK13 (human) (UniProt O15264)

Chain of FLT1 (human) (P17948 whole entry, looked up): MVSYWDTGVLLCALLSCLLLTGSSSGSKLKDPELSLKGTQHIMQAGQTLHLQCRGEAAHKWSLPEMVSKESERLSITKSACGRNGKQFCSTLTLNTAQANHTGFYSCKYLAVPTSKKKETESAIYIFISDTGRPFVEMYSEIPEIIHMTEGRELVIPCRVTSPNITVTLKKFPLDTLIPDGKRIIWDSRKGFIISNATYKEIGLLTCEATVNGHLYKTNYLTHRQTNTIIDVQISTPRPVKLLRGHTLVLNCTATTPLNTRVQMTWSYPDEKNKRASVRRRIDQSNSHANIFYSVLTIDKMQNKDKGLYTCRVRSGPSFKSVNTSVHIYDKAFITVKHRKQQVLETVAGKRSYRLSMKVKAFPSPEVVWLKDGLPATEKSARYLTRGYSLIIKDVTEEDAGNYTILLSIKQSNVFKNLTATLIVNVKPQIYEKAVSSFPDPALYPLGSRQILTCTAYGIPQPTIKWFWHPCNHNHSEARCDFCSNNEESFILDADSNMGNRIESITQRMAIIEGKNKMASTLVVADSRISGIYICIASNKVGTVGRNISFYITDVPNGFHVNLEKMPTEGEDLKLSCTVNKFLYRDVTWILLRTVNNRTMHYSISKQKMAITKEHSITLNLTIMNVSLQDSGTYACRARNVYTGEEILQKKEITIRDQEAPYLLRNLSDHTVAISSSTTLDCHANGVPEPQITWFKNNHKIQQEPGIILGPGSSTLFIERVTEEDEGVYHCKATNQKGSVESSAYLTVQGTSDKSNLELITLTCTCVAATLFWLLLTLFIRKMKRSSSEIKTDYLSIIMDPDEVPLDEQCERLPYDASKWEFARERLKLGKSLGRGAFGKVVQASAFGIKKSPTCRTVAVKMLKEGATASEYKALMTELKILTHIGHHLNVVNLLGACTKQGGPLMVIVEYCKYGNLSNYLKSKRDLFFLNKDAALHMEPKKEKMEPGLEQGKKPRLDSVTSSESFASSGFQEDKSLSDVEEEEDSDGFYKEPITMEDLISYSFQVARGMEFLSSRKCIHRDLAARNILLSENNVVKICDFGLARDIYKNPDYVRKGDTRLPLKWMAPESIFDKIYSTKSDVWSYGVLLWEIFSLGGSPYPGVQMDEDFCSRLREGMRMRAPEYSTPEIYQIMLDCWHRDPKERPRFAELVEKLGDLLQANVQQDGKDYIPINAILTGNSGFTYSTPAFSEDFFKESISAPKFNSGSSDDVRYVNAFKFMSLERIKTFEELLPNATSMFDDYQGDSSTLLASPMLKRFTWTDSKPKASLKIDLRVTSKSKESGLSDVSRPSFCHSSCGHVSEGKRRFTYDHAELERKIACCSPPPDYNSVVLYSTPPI
Chain of MAPK12 (human) (P53778 whole entry, looked up): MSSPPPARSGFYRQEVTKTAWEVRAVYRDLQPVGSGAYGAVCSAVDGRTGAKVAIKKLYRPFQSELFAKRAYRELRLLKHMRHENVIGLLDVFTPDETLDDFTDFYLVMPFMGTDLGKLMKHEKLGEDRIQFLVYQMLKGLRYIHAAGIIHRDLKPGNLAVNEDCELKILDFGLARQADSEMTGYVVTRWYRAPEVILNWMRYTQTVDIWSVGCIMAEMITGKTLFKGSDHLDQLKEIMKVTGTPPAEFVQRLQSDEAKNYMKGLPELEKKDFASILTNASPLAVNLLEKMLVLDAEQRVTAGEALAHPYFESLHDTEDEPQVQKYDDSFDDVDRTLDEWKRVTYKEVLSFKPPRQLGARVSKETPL
Chain of MAPKAPK3 (human) (Q16644 whole entry, looked up): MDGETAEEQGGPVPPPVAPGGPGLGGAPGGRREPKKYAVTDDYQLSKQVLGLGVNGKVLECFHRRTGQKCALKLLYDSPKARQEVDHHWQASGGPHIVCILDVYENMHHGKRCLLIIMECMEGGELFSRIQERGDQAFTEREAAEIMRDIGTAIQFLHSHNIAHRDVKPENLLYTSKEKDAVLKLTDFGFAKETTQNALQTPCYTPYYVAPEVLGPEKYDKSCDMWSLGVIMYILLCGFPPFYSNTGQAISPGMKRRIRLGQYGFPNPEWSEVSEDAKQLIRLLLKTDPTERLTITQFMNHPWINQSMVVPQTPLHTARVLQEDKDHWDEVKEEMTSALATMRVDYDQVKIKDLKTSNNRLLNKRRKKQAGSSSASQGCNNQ

Q: How did the residual activity [1] turn out when `Cc1cccc(Nc2nc(-c3sc(N)nc3C)cs2)n1` was run?
A: 6%

Q: What about the residual activity [2] of the same compound?
A: 8%

Q: What about the residual activity [3] of the same compound?
A: 80%

Q: And the residual activity [4]?
A: 60%

Q: And the residual activity [5]?
A: 12%

Q: And the residual activity [6]?
A: 5%

Q: And the residual activity [7]?
A: 36%

Q: And the residual activity [8]?
A: 4%

Q: And the residual activity [9]?
A: 78%

Q: And the residual activity [10]?
A: 8%

Q: And the residual activity [11]?
A: 18%

Q: What about the residual activity [12] of the same compound?
A: 69%

Q: What about the residual activity [13] of the same compound?
A: 3%

Q: And the residual activity [14]?
A: 26%

Q: And the residual activity [15]?
A: 11%

Q: What about the residual activity [16] of the same compound?
A: 66%

Q: And the residual activity [17]?
A: 99%

Q: And the residual activity [18]?
A: 41%

Q: And the residual activity [19]?
A: 8%

Q: And the residual activity [20]?
A: 23%

Q: And the residual activity [21]?
A: 29%

Q: And the residual activity [22]?
A: 18%

Q: And the residual activity [23]?
A: 88%

Q: What about the residual activity [24] of the same compound?
A: 7%

Q: And the residual activity [25]?
A: 23%

Q: And the residual activity [26]?
A: 73%

Q: And the residual activity [27]?
A: 13%

Q: And the residual activity [28]?
A: 2%

Q: And the residual activity [29]?
A: 23%

Q: And the residual activity [30]?
A: 5%

Q: And the residual activity [31]?
A: 9%

Q: What about the residual activity [32] of the same compound?
A: 21%

Q: And the residual activity [33]?
A: 90%

Q: And the residual activity [34]?
A: 14%

Q: What about the residual activity [35] of the same compound?
A: 7%

Q: What about the residual activity [36] of the same compound?
A: 44%

Q: And the residual activity [37]?
A: 19%

Q: And the residual activity [38]?
A: 83%

Q: And the residual activity [39]?
A: 19%

Q: What about the residual activity [40] of the same compound?
A: 19%

Q: And the residual activity [41]?
A: 65%
